Results taken from patent US9040534B2, “[1,2,4]triazolo[4,3-a]pyrazines as P2X7 modulators” (Janssen Pharmaceutica NV, priority 2013, dated 2015).

Assays:
P2X7 [1] = target: T1, P2X7 (Homo sapiens (Human), UniProt Q99572); test: P2X7 antagonism in human PBMCs (LPS + Bz-ATP induced IL-1β release, ELISA); type: cell-based; settings: 0.5 mM Bz-ATP; for remaining activity at 10 µM: P2X7, 10 μM compound, human PBMC, read-out: PBMC 10 μM (% control); for PBMC 1 μM (% control): 1 μM compound
Description: Human blood was collected using a blood donor program. PBMCs were isolated from blood using a Ficoll density gradient technique. Briefly, blood was laid on Ficoll solution and centrifuged at RT for 20 minutes at 2000 rpm. The buffy layer (between red blood cells and plasma) was carefully collected by aspiration, washed with PBS and centrifuged again at 1500 rpm for 15 minutes. The resulting cell pellet was washed and plated on 96 well-plates for experiments. For the Mouse/Human Whole Blood experiments, 150 μl of either mouse or human blood was platted on 96 well-plates. Lipopolysaccharide (LPS) (30 ng/ml) was added to each well and incubated for 1 hour. Test compounds were then added and incubated for 30 minutes. The P2X7 agonist, 2′(3′)-O-(4-benzoylbenzoyl) adenosine 5′-triphosphate (Bz-ATP) was then added at a final concentration of 0.5 mM (PBMC) or 1 mM (blood). Cells were incubated for an additional 1.5 hours. At that point, supernatant was collected and stored for IL-1β assay using manufacturer's protocol for enzyme-linked immunosorbent assay (ELISA). Data was expressed as percent control, where control is defined as the difference in IL-1β release in LPS+Bz-ATP samples and LPS only samples. Data was plotted as response (% control) versus concentration to generate IC50 values. […] In Table 2, when the data cell has been left blank, it is intended to mean that the compound was not tested in that assay.

P2X7 [2] = target: T1, P2X7; test: Radioligand binding, human P2X7-1321N1 cell membranes, tritiated A-804598 tracer; settings: 1 hour at 4° C.
Description: (B) Radioligand binding: human or rat P2X7-1321N1 cells were collected and frozen @ −80° C. On the day of the experiment, cell membrane preparations were made according to standard published methods. […] The compound can be prepared as described in the literature. […] The assay was terminated by filtration (GF/B filters pre-soaked with 0.3% PEI) and washed with washing buffer (Tris-HCl 50 mM). The IC50 generated in the binding assay was corrected for tracer concentration and affinity of the tracer to derive at the affinity (Ki) of the test compounds.

rat P2X7 [3] = target: T2, rat P2X7 (Rattus norvegicus (Rat), UniProt Q64663); test: Radioligand binding, rat P2X7-1321N1 cell membranes, tritiated A-804598 tracer; settings: 1 hour at 4° C.
Description: (B) Radioligand binding: human or rat P2X7-1321N1 cells were collected and frozen @ −80° C. On the day of the experiment, cell membrane preparations were made according to standard published methods. The total assay volume was 100 μl:10 μl compound (10×)+(b) 40 μl tracer (2.5×)+50 μl membrane (2×). The tracer used for the assay was tritiated A-804598. The compound can be prepared as described in the literature. (Donnelly-Roberts, D. Neuropharmacology 2009, 56 (1), 223-229.) Compounds, tracer and membranes were incubated for 1 hour @ 4° C. The assay was terminated by filtration (GF/B filters pre-soaked with 0.3% PEI) and washed with washing buffer (Tris-HCl 50 mM). The IC50 generated in the binding assay was corrected for tracer concentration and affinity of the tracer to derive at the affinity (Ki) of the test compounds.

P2X7 [4] = target: T1, P2X7; test: Ca2+ flux (FLIPR) in 1321N1 cells expressing recombinant human P2X7 channel; type: cell-based; settings: 250 μM BzATP
Description: (§1) (A) Ca^2+ Flux: 1321N1 cells expressing the recombinant human, rat or mouse P2X7 channel was cultured in HyQ DME/(HyClone/Dulbecco's Modified Eagle Medium) high glucose supplemented with 10% Fetal Bovine Serum (FBS) and appropriate selection marker. Cells were seeded at a density of 25000 cells/well (96-well clear bottom black walled plates) in 100 μl volume/well. On the day of the experiment, cell plates were washed with assay buffer, containing (in mM): 130 NaCl, 2 KCl, 1 CaCl2, 1 MgCl2, 10 HEPES, 5 glucose; pH 7.40 and 300 mOs. After the wash, cells were loaded with the Calcium-4 dye (Molecular Device) and incubated in the dark for 60 minutes. Test compounds were prepared at 250× the test concentration in neat DMSO. Intermediate 96-well compound plates were prepared by transferring 1.2 μL of the compound into 300 μL of assay buffer. A further 3× dilution occurred when transferring 50 μL/well of the compound plate to 100 μL/well in the cell plate. Cells were incubated with test compounds and dye for 30 minutes. […] The fluorescence change was measured 180 seconds after adding the agonist.

rat P2X7 [5] = target: T2, rat P2X7; test: Ca2+ flux (FLIPR) in 1321N1 cells expressing recombinant rat P2X7 channel; type: cell-based; settings: 250 μM BzATP
Description: as §1

T1 sequence (Q99572 whole entry): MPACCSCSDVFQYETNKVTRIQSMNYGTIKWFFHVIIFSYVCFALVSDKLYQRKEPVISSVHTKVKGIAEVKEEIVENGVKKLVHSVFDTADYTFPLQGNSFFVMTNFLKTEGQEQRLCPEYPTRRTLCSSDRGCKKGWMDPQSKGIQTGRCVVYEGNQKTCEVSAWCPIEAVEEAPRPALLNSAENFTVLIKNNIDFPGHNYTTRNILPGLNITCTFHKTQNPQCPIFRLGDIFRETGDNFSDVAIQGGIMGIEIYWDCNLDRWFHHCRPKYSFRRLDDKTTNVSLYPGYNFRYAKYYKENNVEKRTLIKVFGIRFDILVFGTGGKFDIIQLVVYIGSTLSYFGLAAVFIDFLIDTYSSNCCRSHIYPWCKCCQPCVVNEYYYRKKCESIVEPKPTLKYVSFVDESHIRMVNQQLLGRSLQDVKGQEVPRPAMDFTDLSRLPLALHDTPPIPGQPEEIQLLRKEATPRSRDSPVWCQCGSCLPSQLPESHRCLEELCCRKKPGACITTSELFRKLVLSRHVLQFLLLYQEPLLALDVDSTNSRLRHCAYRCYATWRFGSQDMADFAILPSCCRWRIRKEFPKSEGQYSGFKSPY
T2 sequence (Q64663 whole entry): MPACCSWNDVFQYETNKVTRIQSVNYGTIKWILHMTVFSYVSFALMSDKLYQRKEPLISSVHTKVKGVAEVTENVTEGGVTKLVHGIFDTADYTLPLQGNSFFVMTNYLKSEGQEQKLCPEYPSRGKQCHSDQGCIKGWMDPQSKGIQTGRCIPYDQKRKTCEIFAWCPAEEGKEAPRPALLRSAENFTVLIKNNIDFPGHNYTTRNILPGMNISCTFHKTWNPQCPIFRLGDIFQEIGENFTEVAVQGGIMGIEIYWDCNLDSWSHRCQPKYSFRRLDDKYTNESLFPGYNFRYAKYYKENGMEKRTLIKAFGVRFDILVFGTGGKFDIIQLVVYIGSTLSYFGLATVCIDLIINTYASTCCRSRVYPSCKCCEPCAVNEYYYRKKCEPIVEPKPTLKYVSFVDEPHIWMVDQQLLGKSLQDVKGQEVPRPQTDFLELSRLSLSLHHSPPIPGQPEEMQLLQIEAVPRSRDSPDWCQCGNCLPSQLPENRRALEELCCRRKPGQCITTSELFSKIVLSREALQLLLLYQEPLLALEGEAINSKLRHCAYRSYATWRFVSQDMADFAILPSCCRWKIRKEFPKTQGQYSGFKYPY

SMILES: O=C1c2nnc(-c3cnccn3)n2C[C@@H](C2CC2)N1Cc1cccc(C(F)(F)F)c1Cl (single isomer, unassigned) [Example 62]
- remaining activity at 10 µM (P2X7 [1]): 14.1%

SMILES: O=C1c2nnc(-c3cnccn3)n2C[C@H](C2CC2)N1Cc1cccc(C(F)(F)F)c1Cl (single isomer, unassigned) [Example 63]
- remaining activity at 10 µM (P2X7 [1]): 27.3%

SMILES: O=C1c2nnc(-c3cnccn3)n2CCN1Cc1cccc(Cl)c1Cl [Example 2, 7-(2,3-Dichlorobenzyl)-3-pyrazin-2-yl-6,7-dihydro[1,2,4]triazolo[4,3-a]pyrazin-8(5H)-one]
- PBMC 1 μM (% control) (P2X7 [1]): 50.6 % control

SMILES: O=C1c2nnc(-c3cnccn3)n2CCN1Cc1cccc(C(F)(F)F)c1Cl [Example 3, 7-[2-Chloro-3-(trifluoromethyl)benzyl]-3-pyrazin-2-yl-6,7-dihydro[1,2,4]triazolo[4,3-a]pyrazin-8(5H)-one]
- PBMC 1 μM (% control) (P2X7 [1]): −0.6 % control
- Ki (P2X7 [2]): 6.3 nM
- Ki (rat P2X7 [3]): 12.6 nM
- IC50 (P2X7 [4]): 44.2 nM
- IC50 (rat P2X7 [5]): 9310 nM

SMILES: C[C@@H]1Cn2c(nnc2-c2cnccn2)C(=O)N1Cc1cccc(Cl)c1Cl [Example 12, (6R)-7-(2,3-Dichlorobenzyl)-6-methyl-3-pyrazin-2-yl-6,7-dihydro[1,2,4]triazolo[4,3-a]pyrazin-8(5H)-one]
- remaining activity at 10 µM (P2X7 [1]): 20.6%

SMILES: C[C@H]1Cn2c(nnc2-c2ccccn2)C(=O)N1Cc1cccc(C(F)(F)F)c1Cl [Example 18, (6S)-7-[2-Chloro-3-(trifluoromethyl)benzyl]-6-methyl-3-pyridin-2-yl-6,7-dihydro[1,2,4]triazolo[4,3-a]pyrazin-8(5H)-one]
- Ki (P2X7 [2]): 5 nM
- Ki (rat P2X7 [3]): 2 nM
- IC50 (P2X7 [4]): < 1 nM
- IC50 (rat P2X7 [5]): 316 nM

SMILES: C[C@H]1Cn2c(nnc2-c2ncco2)C(=O)N1Cc1cccc(C(F)(F)F)c1Cl [Example 20, (6S)-7-[2-Chloro-3-(trifluoromethyl)benzyl]-6-methyl-3-(1,3-oxazol-2-yl)-6,7-dihydro[1,2,4]triazolo[4,3-a]pyrazin-8(5H)-one]
- Ki (P2X7 [2]): 4 nM
- Ki (rat P2X7 [3]): 5 nM
- IC50 (P2X7 [4]): 3.2 nM
- IC50 (rat P2X7 [5]): 2000 nM

SMILES: C[C@H]1Cn2c(nnc2-c2ccn(C)n2)C(=O)N1Cc1cccc(C(F)(F)F)c1Cl [Example 23, (6S)-7-[2-Chloro-3-(trifluoromethyl)benzyl]-6-methyl-3-(1-methyl-1H-pyrazol-3-yl)-6,7-dihydro[1,2,4]triazolo[4,3-a]pyrazin-8(5H)-one]
- Ki (P2X7 [2]): 3.2 nM
- Ki (rat P2X7 [3]): 3.2 nM
- IC50 (P2X7 [4]): 2.5 nM
- IC50 (rat P2X7 [5]): 1220 nM

SMILES: Cc1cc(-c2nnc3n2C[C@H](C)N(Cc2cccc(C(F)(F)F)c2Cl)C3=O)n[nH]1 [Example 26, (6S)-7-[2-Chloro-3-(trifluoromethyl)benzyl]-6-methyl-3-(5-methyl-1H-pyrazol-3-yl)-6,7-dihydro[1,2,4]triazolo[4,3-a]pyrazin-8(5H)-one]
- Ki (P2X7 [2]): 3.2 nM
- Ki (rat P2X7 [3]): 1 nM
- IC50 (P2X7 [4]): 1.2 nM
- IC50 (rat P2X7 [5]): 375 nM

SMILES: C[C@H]1Cn2c(nnc2-c2cccnc2)C(=O)N1Cc1cccc(C(F)(F)F)c1Cl [Example 29, (6S)-7-[2-Chloro-3-(trifluoromethyl)benzyl]-6-methyl-3-pyridin-3-yl-6,7-dihydro[1,2,4]triazolo[4,3-a]pyrazin-8(5H)-one]
- Ki (P2X7 [2]): 4 nM
- Ki (rat P2X7 [3]): 5.6 nM
- IC50 (P2X7 [4]): 1 nM
- IC50 (rat P2X7 [5]): 122 nM

SMILES: C[C@H]1Cn2c(nnc2-c2ccc(F)cn2)C(=O)N1Cc1cccc(C(F)(F)F)c1Cl [Example 30, (6S)-7-[2-Chloro-3-(trifluoromethyl)benzyl]-3-(5-fluoropyridin-2-yl)-6-methyl-6,7-dihydro[1,2,4]triazolo[4,3-a]pyrazin-8(5H)-one]
- remaining activity at 10 µM (P2X7 [1]): 3.3%
- IC50 (P2X7 [4]): 0.9 nM

SMILES: C[C@H]1Cn2c(nnc2-c2cncc(F)c2)C(=O)N1Cc1cccc(C(F)(F)F)c1Cl [Example 45, (6S)-7-[2-Chloro-3-(trifluoromethyl)benzyl]-3-(5-fluoropyridin-3-yl)-6-methyl-6,7-dihydro[1,2,4]triazolo[4,3-a]pyrazin-8(5H)-one]
- Ki (P2X7 [2]): 6.3 nM
- Ki (rat P2X7 [3]): 5 nM
- IC50 (P2X7 [4]): 100 nM
- IC50 (rat P2X7 [5]): 12600 nM

SMILES: Cc1ncccc1-c1nnc2n1C[C@H](C)N(Cc1cccc(C(F)(F)F)c1Cl)C2=O [Example 48, (6S)-7-[2-Chloro-3-(trifluoromethyl)benzyl]-6-methyl-3-(2-methylpyridin-3-yl)-6,7-dihydro[1,2,4]triazolo[4,3-a]pyrazin-8(5H)-one]
- Ki (P2X7 [2]): 12.6 nM
- IC50 (P2X7 [4]): 13.2 nM
- IC50 (rat P2X7 [5]): 543 nM

SMILES: C[C@H]1Cn2c(nnc2C2CCCN(C(=O)OC(C)(C)C)C2)C(=O)N1Cc1cccc(C(F)(F)F)c1Cl (stereo partly drawn) [Example 59, (6S)-tert-Butyl3-{7-[2-chloro-3-(trifluoromethyl)benzyl]-6-methyl-8-oxo-5,6,7,8-tetrahydro[1,2,4]triazolo[4,3-a]pyrazin-3-yl}piperidine-1-carboxylate]
- remaining activity at 10 µM (P2X7 [1]): 10.9%
- IC50 (rat P2X7 [5]): 1140 nM

SMILES: C[C@H]1Cn2c(nnc2C2CCCNC2)C(=O)N1Cc1cccc(C(F)(F)F)c1Cl (stereo partly drawn) [Example 60, (6S)-7-[2-Chloro-3-(trifluoromethyl)benzyl]-6-methyl-3-piperidin-3-yl-6,7-dihydro[1,2,4]triazolo[4,3-a]pyrazin-8(5H)-one]
- Ki (P2X7 [2]): 631 nM
- IC50 (P2X7 [4]): > 10000 nM
- IC50 (rat P2X7 [5]): > 10000 nM

SMILES: CC[C@H]1Cn2c(nnc2-c2cnccn2)C(=O)N1Cc1cccc(C(F)(F)F)c1Cl [Example 71, (6S)-7-[2-Chloro-3-(trifluoromethyl)benzyl]-6-ethyl-3-pyrazin-2-yl-6,7-dihydro[1,2,4]triazolo[4,3-a]pyrazin-8(5H)-one]
- Ki (P2X7 [2]): 1.3 nM
- IC50 (P2X7 [4]): 0.3 nM
- IC50 (rat P2X7 [5]): 10.3 nM

SMILES: CC[C@H]1Cn2c(nnc2-c2cc[nH]n2)C(=O)N1Cc1cccc(C(F)(F)F)c1Cl [Example 74, (6S)-7-[2-Chloro-3-(trifluoromethyl)benzyl]-6-ethyl-3-(1H-pyrazol-3-yl)-6,7-dihydro[1,2,4]triazolo[4,3-a]pyrazin-8(5H)-one]
- Ki (P2X7 [2]): 10 nM
- IC50 (P2X7 [4]): 1.5 nM
- IC50 (rat P2X7 [5]): 5.1 nM

SMILES: CC[C@H]1Cn2c(nnc2-c2ccc(F)cn2)C(=O)N1Cc1cccc(C(F)(F)F)c1Cl [Example 76, (6S)-7-[2-Chloro-3-(trifluoromethyl)benzyl]-6-ethyl-3-(5-fluoropyridin-2-yl)-6,7-dihydro[1,2,4]triazolo[4,3-a]pyrazin-8(5H)-one]
- Ki (P2X7 [2]): 2.5 nM
- Ki (rat P2X7 [3]): 1.6 nM
- IC50 (P2X7 [4]): < 1 nM
- IC50 (rat P2X7 [5]): 158 nM

SMILES: Cc1cccc(C)c1CN1C(=O)c2nnc(-c3cnccn3)n2C[C@@H]1C [Example 87, (6S)-7-(2,6-Dimethylbenzyl)-6-methyl-3-pyrazin-2-yl-6,7-dihydro[1,2,4]triazolo[4,3-a]pyrazin-8(5H)-one]
- Ki (P2X7 [2]): 31.6 nM
- IC50 (P2X7 [4]): 42.5 nM
- IC50 (rat P2X7 [5]): 1560 nM

SMILES: C[C@H]1Cn2c(nnc2-c2cnccn2)C(=O)N1Cc1cccc(C(F)(F)F)c1 [Example 88, (6S)-6-Methyl-3-pyrazin-2-yl-7-[3-(trifluoromethyl)benzyl]-6,7-dihydro[1,2,4]triazolo[4,3-a]pyrazin-8(5H)-one]
- Ki (P2X7 [2]): 5 nM
- IC50 (P2X7 [4]): 4 nM
- IC50 (rat P2X7 [5]): 6040 nM
